Laboratory results: US8642265B2, “Compositions and methods for the detection of topoisomerase II complexes with DNA” (The Children's Hospital of Philadelphia, priority 2004, dated 2014)

Experiments:
[1] = target: T1, DNA topoisomerase II covalent complexes in KG1 cells (Homo sapiens, UniProt P11388); test: Modified ICE bioassay in KG1 cells; format: cell-based; conditions: doxorubicin at 100 μM
T1 construct: endogenous in cells; host or cells: KG1 (KG-1) cells
Protocol: The assays were performed on CEM cells (FIG. 7A), K562 cells (FIGS. 7B and 7C), and KG-1 cells (FIG. 7D).
(§1) After flash-freezing and thawing at 37° C., the DNA was sheared by passage through a 251/2 G needle. […] The pellet was dissolved in 200 μl of 10 mM Tris-HCl (pH 8.0) 1 mM EDTA buffer, the DNA was quantified and 5.6 μg of DNA was analyzed on a Western blot with a mouse anti-human DNA topoisomerase IIα antibody (DAKO, Glostrup, Denmark) to detect DNA topoisomerase IIα-bound DNA (11).
(§2) However, doxorubicin is an intercalative DNA topoisomerase II poison that induces DNA topoisomerase II cleavage with different sequence site-selectivity (Capranico et al., 1990) and that also is associated with leukemia as a treatment complication, albeit less often (Sandoval et al., 1993).

[2] = target: DNA topoisomerase II cleavage complexes in CEM cells (Homo sapiens, UniProt P11388); test: Modified ICE (in vivo complex of enzyme) bioassay in CEM cells; conditions: 20 μM, 2 hours
[3] = target: human DNA topoisomerase IIα (Homo sapiens, UniProt P11388); test: DNA topoisomerase II in vitro cleavage assay; conditions: for cleavage at MLL bcr position 6588 over cleavage without drug (enzyme-only): drug at 20 μM, 10 min 37° C.
[4] = target: T2, DNA topoisomerase II cleavage complexes in K562 cells (Homo sapiens, UniProt P11388); test: Modified ICE bioassay in K562 cells; format: cell-based; conditions: for induction of DNA topoisomerase II cleavage complexes: 20 μM
T2 construct: endogenous in cells; host or cells: K562 cells
Protocol: as §1, §2

[5] = target: T3, DNA topoisomerase II covalent complexes in ex vivo expanded CD34+ cells (Homo sapiens, UniProt P11388); test: Modified ICE bioassay in ex vivo expanded CD34+ cells; format: cell-based; conditions: 2 hours, etoposide 100 μM
T3 construct: endogenous in cells; host or cells: primary human bone marrow CD34+ cells, expanded ex vivo
Protocol: as §1

[6] = system: ex vivo expanded CD34+ cells; test: Cell viability by Trypan Blue exclusion; format: cell-based, human; conditions: etoposide 2 hours, same for untreated
Protocol: as §1
Cell viability assessed by Trypan blue exclusion was ˜70% for both conditions. As predicted in proliferating cells (6), native DNA topoisomerase II covalent complexes were detected in the untreated cells. […] The DNA topoisomerase IIα protein ran higher than its known molecular weight of 170 kDa, which is consistent with the presence of DNA bound to the enzyme.

[7] = target: T4, DNA topoisomerase II cleavage complexes with the MLL bcr in CD34+ cells (Homo sapiens, UniProt P11388); test: MLL bcr oligonucleotide microarray (XEOCHIP) of DNA topoisomerase II-bound DNA; format: cell-based; conditions: 100 μM, Q-Q plot
T4 construct: endogenous in cells; host or cells: primary human bone marrow CD34+ cells, expanded ex vivo
Description: Employing XEOCHIP™ technology (Xeotron, Houston, Tex.), a first generation MLL bcr oligonucleotide array containing replicate slots of each of 162 probes was created. The 162 probes included 73 probes for the non-repetitive MLL bcr sequences, 8 probes for the Alu region between nucleotide positions 663-1779 in the MLL bcr, 57 probes for MLL exon 25 which is unaffected by the translocations, and 24 probes for 9 bacterial control genes (see Tables 2 and 3; Tables 4 and 5 provide another example of a series of oligonucleotides that can be employed in a microarray). The 8.3 kb MLL bcr is represented by replicates of each of the 73 50 mers at average intervals of 115 bases to span the bcr. Because it has been well documented in the literature that the printing, general hybridization conditions, and scanning of microarrays introduce systemic effects that are related to the position on the chip, replicates of each of the probes in the array have been spaced throughout the chip.
Primary CD34+ selected human bone marrow cells were obtained through the NHLBI or purchased commercially. The cells were expanded ex vivo using conditions optimized to promote minimal differentiation in order to increase cell numbers as required to generate a useful model system.
DOP of the immunoaffinity-purified DNA topoisomerase II cleavage complexes from the treated and untreated cells was performed exactly as was done with the reference sample. […] Dye-swap experiments were also performed.
GeneSpring (Silicon Genetics, Redwood City, Calif.) was employed as a computational tool to visualize and analyze the data from MLL bcr XEOCHIPS™ with either treated or untreated samples in one channel and the reference sample in the other.
DOP-amplified DNA from the DNA topoisomerase II cleavage complexes in treated or untreated cells on separate chips was labeled with ALEXA FLUOR® 546. The MLL bcr reference sample was labeled with ALEXA FLUOR® 647. The null hypothesis represented by the straight line is that there is no effect at any probe, whereas upward departure points are potential hotspots and downward departure points are potential coldspots.

[8] = target: T5, DNA topoisomerase II covalent complexes with MLL and other sequences in CD34+ cells (Homo sapiens, UniProt P11388); test: Immunoaffinity purification, DOP amplification and real-time PCR of DNA topoisomerase IIα-bound DNA; format: cell-based
T5 construct: endogenous in cells; host or cells: primary human bone marrow CD34+ cells, expanded ex vivo

[9] = 20 μM, additional 10 min at 75° C.

Sequence of DNA topoisomerase II cleavage complexes in CEM cells (P11388 whole entry, one chain of several): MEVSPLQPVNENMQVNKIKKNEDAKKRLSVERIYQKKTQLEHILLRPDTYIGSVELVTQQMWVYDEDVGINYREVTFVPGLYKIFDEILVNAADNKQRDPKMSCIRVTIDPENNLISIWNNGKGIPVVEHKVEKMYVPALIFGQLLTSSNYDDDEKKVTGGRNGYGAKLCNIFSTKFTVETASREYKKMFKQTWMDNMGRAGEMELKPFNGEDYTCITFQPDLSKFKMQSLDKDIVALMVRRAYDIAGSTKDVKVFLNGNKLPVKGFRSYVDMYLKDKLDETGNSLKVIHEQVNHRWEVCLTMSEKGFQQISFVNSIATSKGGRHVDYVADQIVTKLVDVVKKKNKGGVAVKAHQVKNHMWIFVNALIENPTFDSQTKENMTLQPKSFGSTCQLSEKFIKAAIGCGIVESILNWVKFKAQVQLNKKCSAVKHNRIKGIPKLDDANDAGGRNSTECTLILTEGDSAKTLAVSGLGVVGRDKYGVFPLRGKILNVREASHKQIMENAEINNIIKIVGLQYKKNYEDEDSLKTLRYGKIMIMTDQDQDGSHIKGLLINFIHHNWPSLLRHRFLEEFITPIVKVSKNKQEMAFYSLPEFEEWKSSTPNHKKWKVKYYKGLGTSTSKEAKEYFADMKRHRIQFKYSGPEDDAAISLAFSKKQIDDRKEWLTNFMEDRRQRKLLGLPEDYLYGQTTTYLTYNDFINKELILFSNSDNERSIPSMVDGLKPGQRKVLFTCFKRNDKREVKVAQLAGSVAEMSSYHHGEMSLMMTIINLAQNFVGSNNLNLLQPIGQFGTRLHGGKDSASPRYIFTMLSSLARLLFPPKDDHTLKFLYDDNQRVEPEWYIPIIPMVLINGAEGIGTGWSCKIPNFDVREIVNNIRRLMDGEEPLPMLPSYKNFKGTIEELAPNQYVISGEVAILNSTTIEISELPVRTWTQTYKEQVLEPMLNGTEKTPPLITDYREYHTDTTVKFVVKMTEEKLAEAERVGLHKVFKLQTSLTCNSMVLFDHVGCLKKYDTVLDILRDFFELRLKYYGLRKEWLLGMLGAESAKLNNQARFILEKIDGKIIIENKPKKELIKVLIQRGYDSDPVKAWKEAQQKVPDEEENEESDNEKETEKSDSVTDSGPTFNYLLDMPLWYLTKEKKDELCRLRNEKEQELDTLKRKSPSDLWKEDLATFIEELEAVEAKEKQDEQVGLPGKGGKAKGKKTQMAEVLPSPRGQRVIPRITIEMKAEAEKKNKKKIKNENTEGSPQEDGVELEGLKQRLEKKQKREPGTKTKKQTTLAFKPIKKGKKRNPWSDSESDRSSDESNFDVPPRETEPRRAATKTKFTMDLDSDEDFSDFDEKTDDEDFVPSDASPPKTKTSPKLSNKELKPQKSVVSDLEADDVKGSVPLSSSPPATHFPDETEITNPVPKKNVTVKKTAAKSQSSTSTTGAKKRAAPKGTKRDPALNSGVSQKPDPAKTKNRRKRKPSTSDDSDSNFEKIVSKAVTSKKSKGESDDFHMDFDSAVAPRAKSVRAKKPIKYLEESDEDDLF
Sequence of human DNA topoisomerase IIα (P11388 whole entry): as the sequence (P11388 whole entry, one chain of several) above
T2 sequence (P11388 whole entry, one chain of several): as above
T4 sequence (P11388 whole entry, one chain of several): as above
T3 sequence (P11388 whole entry, one chain of several): as above
T1 sequence (P11388 whole entry, one chain of several): as above
T5 sequence (P11388 whole entry, one chain of several): as above

Row | SMILES | induction of DNA topoisomerase II covalent complexes [1] | induction of DNA topoisomerase II cleavage complexes [2] | cleavage at MLL bcr position 6588 over cleavage without drug (enzyme-only) ([3]; MLL intron 8 substrate) [fold] | induction of DNA topoisomerase II cleavage complexes [4] | cleavage at AF-4 intron 3 position 7126 relative to the strongest enzyme-only cleavage in the substrate (position 7114) ([3]; 20 μM, AF-4 intron 3 substrate) [fold] | rank in relative intensity of cleavage at AF-4 position 7126 among all cleavage sites ([3]; 20 μM, AF-4 intron 3 substrate) | formation of DNA topoisomerase II covalent complexes versus untreated cells [5] | potential coldspots for DNA topoisomerase II cleavage complexes (array probes), treated vs untreated [7] | potential hotspots for DNA topoisomerase II cleavage complexes (array probes), treated vs untreated [7] | other results
1 | COc1cccc2c1C(=O)c1c(O)c3c(c(O)c1C2=O)C[C@@](O)(C(=O)CO)C[C@@H]3O[C@H]1C[C@H](N)[C@H](O)[C@H](C)O1 [doxorubicin] | induced DNA II covalent complexes | no induction | 0.4 | no induction | – | – | – | – | – | cleavage over enzyme-only cleavage at MLL bcr positions 4675 and 4673 and GAS7 position 1238 ([3]; 0.01 μM): quantifiably enhanced cleavage; effect on cleavage at MLL bcr position 6588 over a range of concentrations ([3]; 0.01 μM to 0.5 μM): dose-dependent increases over enzyme-only cleavage; cleavage at MLL 4675, 4673 and GAS7 1238 at high concentration ([3]; 20 μM): complete diminution; cleavage at AF-4 intron 3 position 7126 ([3]; 20 μM or lower concentrations, AF-4 intron 3 substrate): no detectable cleavage; concentration at which cleavage at AF-4 positions 7111, 7114 and 7119 began to decrease ([3]; AF-4 intron 3 substrate): 0.5 µM; effect on cleavage at AF-4 intron 3 positions 7111, 7114 and 7119 over a range of concentrations ([3]; AF-4 intron 3 substrate): dose-dependent increases in cleavage stimulation over enzyme-only cleavage; concentration at which cleavage enhancement at MLL 4675, 4673 and GAS7 1238 began to decrease ([3]; MLL and GAS7 substrates): 0.1 µM; concentration at which cleavage enhancement at MLL bcr position 6588 began to decrease ([3]; MLL intron 8 substrate): 2.5 µM; effect on cleavage at MLL bcr positions 6587 and 6589 ([3]; all concentrations tested): only catalytic inhibition
2 | COc1cc([C@@H]2c3cc4c(cc3[C@@H](O[C@@H]3O[C@@H]5CO[C@@H](C)O[C@H]5[C@H](O)[C@H]3O)[C@H]3COC(=O)[C@H]23)OCO4)cc(O)c1O [etoposide catechol] | – | significant induction | 4.4 | – | 5.9 | first | increased formation of topoisomerase-DNA cleavage complexes | – | – | amount of cleavage complexes induced compared with etoposide [2]: comparable in amount to the parent drug
3 | COC1=CC(C2c3cc4c(cc3C(O[C@@H]3O[C@@H]5COC(C)O[C@H]5[C@H](O)[C@H]3O)C3COC(=O)C23)OCO4)=CC(=O)C1=O (stereo partly drawn) [etoposide quinone] | – | significant induction | 9.8 | Induction of DNA cleavage complexes was also observed | 3.4 | 5th | – | – | – | rank of cleavage at MLL bcr position 6588 among cleavage sites in the substrate ([3]; 20 μM, MLL intron 8 substrate): 3rd; concentration dependence of induction of DNA topoisomerase II cleavage complexes ([4]; 2 hours): concentration dependent increase
4 | COc1cc([C@@H]2c3cc4c(cc3[C@@H](O[C@@H]3O[C@@H]5CO[C@@H](C)O[C@H]5[C@H](O)[C@H]3O)[C@H]3COC(=O)[C@H]23)OCO4)cc(OC)c1O [etoposide] | induced DNA II covalent complexes | significant induction | 7.9 | Induction of DNA cleavage complexes was also observed | – | – | increased formation of DNA topoisomerase II covalent complexes | probes 2-28, 1-30, 1-18, and 1-15 | probes 1-41 and 1-51 | heat stability of cleavage at AF-4 intron 3 position 7126 [3, 9]: especially heat-stable; heat stability of cleavage complexes at MLL bcr position 6588 [3, 9]: remained detectable after heating; cell viability assessed by Trypan blue exclusion [6]: ~70%
5 | O=c1c(-c2ccc(O)cc2)coc2cc(O)cc(O)c12 [genistein] | – | – | – | – | – | – | – | probes 1-31 (SEQ ID NO: 27), 2-50 (SEQ ID NO: 162), 1-74 (SEQ ID NO: 62), 2-28 (SEQ ID NO: 34), 1-10 (SEQ ID NO: 83), and 1-22 (SEQ ID NO: 71) | Probes 1-68 (SEQ ID NO: 157), 1-41 (SEQ ID NO: 49), 1-51 (SEQ ID NO: 141), and 1-33 (SEQ ID NO: 132) | real-time PCR products, MLL intron 7-exon 8 amplicon [8]: real-time PCR products that were detected
